# Assay results published in ChEMBL document CHEMBL3885861, “Open TG-GATES”.
# Species on record: Rattus norvegicus
# Assay: Open TG-GATES - Regimen: Single
# Format: toxicity, organism-based, Sprague-Dawley
# Design: regimen Single, gender Male, age 6 weeks
# Settings: in vivo, po, 60 mg/kg, route gavage, dose level Middle; for APTT / Bas / Eos / Fbg / Hb / Ht / Lym / MCH / MCHC / MCV / Mono / Neu / PT / Plat / RBC / Ret / WBC: tissue Blood; for KIDNEY_L / KIDNEY_R / KIDNEY_TOTAL: tissue Kidney; for LIVER: tissue Liver; for A/G / ALP / ALT / AST / BUN / CRE / Ca / Cl / DBIL / GLC / IP / K / LDH / Na / PL / RALB / TBIL / TC / TG / TP / gamma-GTP: tissue Plasma
smiles,measurement,setting,value
CC(CN1c2ccccc2Sc2ccccc21)N(C)C (configuration not stated) [PROMETHAZINE],TERMINAL_BW,3 h,213.4 g
same,APTT,3 h,22.4 s
same,Bas,3 h,0%
same,Eos,3 h,1%
same,Fbg,3 h,317 mg/dL
same,Hb,3 h,13.2 g/dL
same,Ht,3 h,40.6%
same,Lym,3 h,71.6%
same,MCH,3 h,20.2 pg
same,MCHC,3 h,32.6%
same,MCV,3 h,62 fL
same,Mono,3 h,2.2%
same,Neu,3 h,25%
same,PT,3 h,16.4 s
same,Plat,3 h,126 x10_4/uL
same,RBC,3 h,655.2 x10_4/ul
same,Ret,3 h,7.3%
same,WBC,3 h,64.7 x10_2/uL
same,KIDNEY_L,3 h,0.9 g
same,KIDNEY_R,3 h,0.9 g
same,KIDNEY_TOTAL,3 h,1.9 g
same,LIVER,3 h,9.3 g
same,A/G,3 h,1.3
same,ALP,3 h,1673 IU/L
same,ALT,3 h,56.2 IU/L
same,AST,3 h,87.6 IU/L
same,BUN,3 h,9.6 mg/dL
same,CRE,3 h,0.2 mg/dL
same,Ca,3 h,10.5 mg/dL
same,Cl,3 h,105.6 meq/L
same,DBIL,3 h,0.024 mg/dL
same,GLC,3 h,172.8 mg/dL
same,IP,3 h,9.6 mg/dL
same,K,3 h,4.3 meq/L
same,LDH,3 h,222.6 IU/L
same,Na,3 h,142.6 meq/L
same,PL,3 h,132 mg/dL
same,RALB,3 h,3.1 g/dL
same,TBIL,3 h,0.016 mg/dL
same,TC,3 h,75 mg/dL
same,TG,3 h,50 mg/dL
same,TP,3 h,5.5 g/dL
same,gamma-GTP,3 h,1.2 IU/L
same,TERMINAL_BW,6 h,210 g
same,APTT,6 h,23.8 s
same,Bas,6 h,0%
same,Eos,6 h,0.8%
same,Fbg,6 h,322 mg/dL
same,Hb,6 h,13.4 g/dL
same,Ht,6 h,40.7%
same,Lym,6 h,77.2%
same,MCH,6 h,20.1 pg
same,MCHC,6 h,33%
same,MCV,6 h,61.1 fL
same,Mono,6 h,2.8%
same,Neu,6 h,18.4%
same,PT,6 h,16.3 s
same,Plat,6 h,112.6 x10_4/uL
same,RBC,6 h,667.8 x10_4/ul
same,Ret,6 h,7.3%
same,WBC,6 h,85.9 x10_2/uL
same,KIDNEY_L,6 h,0.9 g
same,KIDNEY_R,6 h,0.9 g
same,KIDNEY_TOTAL,6 h,1.8 g
same,LIVER,6 h,8.6 g
same,A/G,6 h,1.3
same,ALP,6 h,1478.6 IU/L
same,ALT,6 h,43.2 IU/L
same,AST,6 h,74.6 IU/L
same,BUN,6 h,9.4 mg/dL
same,CRE,6 h,0.2 mg/dL
same,Ca,6 h,10.9 mg/dL
same,Cl,6 h,105.2 meq/L
same,DBIL,6 h,0.016 mg/dL
same,GLC,6 h,180.6 mg/dL
same,IP,6 h,9.6 mg/dL
same,K,6 h,4.3 meq/L
same,LDH,6 h,192.2 IU/L
same,Na,6 h,141.8 meq/L
same,PL,6 h,125 mg/dL
same,RALB,6 h,3 g/dL
same,TBIL,6 h,0.022 mg/dL
same,TC,6 h,71.6 mg/dL
same,TG,6 h,49 mg/dL
same,TP,6 h,5.5 g/dL
same,gamma-GTP,6 h,1.4 IU/L
same,TERMINAL_BW,9 h,211 g
same,APTT,9 h,24.1 s
same,Bas,9 h,0%
same,Eos,9 h,1%
same,Fbg,9 h,315.8 mg/dL
same,Hb,9 h,13.3 g/dL
same,Ht,9 h,40.8%
same,Lym,9 h,78.6%
same,MCH,9 h,20.4 pg
same,MCHC,9 h,32.6%
same,MCV,9 h,62.5 fL
same,Mono,9 h,3%
same,Neu,9 h,17.2%
same,PT,9 h,16.6 s
same,Plat,9 h,122 x10_4/uL
same,RBC,9 h,652.4 x10_4/ul
same,Ret,9 h,7.6%
same,WBC,9 h,101.4 x10_2/uL
same,KIDNEY_L,9 h,0.9 g
same,KIDNEY_R,9 h,0.9 g
same,KIDNEY_TOTAL,9 h,1.8 g
same,LIVER,9 h,8.3 g
same,A/G,9 h,1.3
same,ALP,9 h,1318.2 IU/L
same,ALT,9 h,43.2 IU/L
same,AST,9 h,69.6 IU/L
same,BUN,9 h,11.6 mg/dL
same,CRE,9 h,0.2 mg/dL
same,Ca,9 h,10.7 mg/dL
same,Cl,9 h,106.2 meq/L
same,DBIL,9 h,0.02 mg/dL
same,GLC,9 h,179.2 mg/dL
same,IP,9 h,9.5 mg/dL
same,K,9 h,4.2 meq/L
same,LDH,9 h,155.8 IU/L
same,Na,9 h,140.2 meq/L
same,PL,9 h,131 mg/dL
same,RALB,9 h,3 g/dL
same,TBIL,9 h,0.026 mg/dL
same,TC,9 h,77 mg/dL
same,TG,9 h,46.8 mg/dL
same,TP,9 h,5.4 g/dL
same,gamma-GTP,9 h,1.2 IU/L
same,TERMINAL_BW,24 h,217.9 g
same,APTT,24 h,23.6 s
same,Bas,24 h,0%
same,Eos,24 h,1%
same,Fbg,24 h,311.6 mg/dL
same,Hb,24 h,13.4 g/dL
same,Ht,24 h,40.3%
same,Lym,24 h,80%
same,MCH,24 h,21.1 pg
same,MCHC,24 h,33.3%
same,MCV,24 h,63.4 fL
same,Mono,24 h,2.2%
same,Neu,24 h,16%
same,PT,24 h,16.7 s
same,Plat,24 h,126.1 x10_4/uL
same,RBC,24 h,635.4 x10_4/ul
same,Ret,24 h,6.8%
same,WBC,24 h,113 x10_2/uL
same,KIDNEY_L,24 h,1 g
same,KIDNEY_R,24 h,1 g
same,KIDNEY_TOTAL,24 h,1.9 g
same,LIVER,24 h,9.5 g
same,A/G,24 h,1.3
same,ALP,24 h,1785 IU/L
same,ALT,24 h,46.8 IU/L
same,AST,24 h,68 IU/L
same,BUN,24 h,17.6 mg/dL
same,CRE,24 h,0.2 mg/dL
same,Ca,24 h,10.8 mg/dL
same,Cl,24 h,106.4 meq/L
same,DBIL,24 h,0.004 mg/dL
same,GLC,24 h,190.6 mg/dL
same,IP,24 h,7.4 mg/dL
same,K,24 h,4.1 meq/L
same,LDH,24 h,185.4 IU/L
same,Na,24 h,142 meq/L
same,PL,24 h,127.6 mg/dL
same,RALB,24 h,3.1 g/dL
same,TBIL,24 h,0.014 mg/dL
same,TC,24 h,68.8 mg/dL
same,TG,24 h,73 mg/dL
same,TP,24 h,5.5 g/dL
same,gamma-GTP,24 h,1.2 IU/L
